{"source": "patent US20190070170A1", "about": "“METHOD OF S[…]-1” (Macau University of Science and Technology, priority 2017, published 2019)", "key": {"COX-2": {"test_system": "COX-2", "experiment": "COX-2 protein expression in IL-1β-stimulated A549 cells (western blotting)", "type": "cell-based", "settings": "IL-1β with SIN or DEX for 48 h", "protocol": "(§1) RAW264.7 and A549 cell lines were obtained from American Type Culture Collection (ATCC, Manassas, Va., USA) and maintained in DMEM (RAW264.7) or 1640 (A549) medium containing 10% FBS (Gibco-BRL, Grand Island, N.Y., USA) and antibiotics at 37° C. in a humidified atmosphere containing 5% CO2. RAW264.7 cells were plated in 6-well plates at a density of 4×10^5 cells and incubated for 24 h, then the cells were pretreated with different concentrations of SIN for 1 h before stimulating with LPS (100 ng/ml). A549 cells were seeded in 6-well plates at a density of 1×10^5 cells and incubated for 24 h, followed by pretreatment with SIN. A549 cells were then stimulated by IL-1β (1 ng/ml).\n(§2) Whole-cell and nuclear proteins were obtained using RIPA lysis buffer (CST, Boston, Mass., USA) and Nuclear and Cytoplasmic Extraction Reagents kit from Thermo Scientific (Asheville, N.C., USA), respectively. For immunoblotting, proteins from whole-cell, cytoplasm, nuclear, and microsomal fractions were separated on SDS-PAGE, then transferred onto a nitrocellulose membrane from GE Healthcare Life Sciences (Buckinghamshire, UK), and incubated with 5% skimmed milk at room temperature for 1 h. […] The levels of protein expression were measured using Odyssey v3.0 software from Li-COR (Lincoln, Nebr., USA)."}, "PGD2": {"test_system": "PGD2", "experiment": "PGD2 level in culture supernatants of LPS-activated rat peritoneal macrophages (ELISA)", "type": "cell-based", "settings": "LPS-stimulated rat peritoneal macrophages, culture supernatant", "protocol": "(§3) Sprague-Dawley (SD) rats from the University of Hong Kong were housed in cages with free access to food and water. Peritoneal macrophages of SD rats were isolated as described in Liu J. et al., Pharmacological research 2016, 111:303-315. Briefly, untreated rats were sacrificed and after laparotomy, about 50 ml cold sterile Hank's balanced salt solution (HBSS) was used to lavage the peritoneal cavity at twice, and then the peritoneal lavage fluid was collected and centrifuged at 1500 rpm for 10 min. The cell pellets was suspended at a density 1.5×10^6 cells/ml in pre-hearted DMEM medium with 10% heat-inactivated FBS, penicillin G (100 units/ml), streptomycin ([…]), and L-glutamine (2 mM), followed by seeding in 6-well plates at a density of 4.5×10^6 cells and incubation for 2 h. Then the medium were discarded to remove the non-adherent cells. The adherent cells were further washed for two times with pre-heated DMEM medium to remove floating cells. Next, cells were pre-treated with various concentration of SIN for 1 h, followed by stimulation with LPS (1 μg/ml).\n(§4) RAW264.7 cells and rat peritoneal macrophages were seeded in a 96-well plate at density of 1.4×10^4 and 1.5×10^5 cells, respectively. […] The optical density was measured at 570 nm against a reference wavelength of 650 nm using a microplate UV/VIS spectrophotometer (Tecan, Mannedorf, Switzerland). […]"}, "mPGES-1 [1]": {"test_system": "mPGES-1", "experiment": "mPGES-1 protein in microsomes of inflamed paw of carrageenan-induced rats (western blotting)", "type": "in vivo, SD rats", "settings": "SIN 25, 50, 100 mg/kg or DEX 2 mg/kg i.p.", "quoted_text": "The model of carrageenan-induced paw edema was performed with SD rats (150-200 g). […] Briefly, rats were fasted for 12 h before experiment and intraperitoneal injection was performed with three different doses (25, 50 and 100 mg/kg) of SIN, or DEX (reference drug, 2 mg/kg) or 0.9% saline (Vehicle and Normal group rats), at 2 h prior to the induction of paw edema. Paw edema was induced by subcutaneous injection of 100 μl of 1% (w/v) freshly prepared λ-carrageenan (Sigma, St Louis, Mo., USA) diluted in saline in the right hind foot pad. 100 μl sterile saline was injected to the rats in the right hind paw as normal control.\nAfter accomplish the experiment, rats were sacrificed by injection of dorminal, which contains 20% pentobarbital and followed by cervical dislocation. The paw tissues were removed and freshly frozen in liquid nitrogen immediately and stored at −80° C.\nFrozen paws were pulverized in liquid nitrogen using a stainless steel mortar and pestle, then re-suspended in 8 volumes of ice-cold PBS from Invitrogen (San Diego, Calif., USA) with 2.6 mM DTT from Promega (Madison, Wis., USA) and 2×Complete Protease Inhibitor mixture from Roche (Mannheim, Germany), and homogenized on ice bath using a tissue homogenizer from T25 digital, IKA (Stanfen, Germany) at 10,000 rpm/min for 5 min. […] The protein concentrations were measured using a Bio-Rad protein assay kit (Hercules, Calif., USA). […]"}, "p-cPLA2 [2]": {"test_system": "p-cPLA2", "experiment": "p-cPLA2 protein expression in LPS-activated rat peritoneal macrophages (western blotting)", "type": "cell-based", "settings": "SIN or DEX 1 h, LPS 24 h", "protocol": "as §3\n(§5) Whole-cell and nuclear proteins were obtained using RIPA lysis buffer (CST, Boston, Mass., USA) and Nuclear and Cytoplasmic Extraction Reagents kit from Thermo Scientific (Asheville, N.C., USA), respectively. […] The levels of protein expression were measured using Odyssey v3.0 software from Li-COR (Lincoln, Nebr., USA)."}, "C/EBPβ": {"test_system": "C/EBPβ", "experiment": "C/EBPβ phosphorylation and nuclear translocation in LPS-stimulated rat peritoneal macrophages (western blotting, immunofluorescence)", "type": "cell-based", "settings": "SIN 1 h", "protocol": "as §3\nas §5, with “USA). […]” for “USA).”"}, "NO": {"test_system": "NO", "experiment": "NO production in LPS-stimulated rat peritoneal macrophages (Griess reagent)", "type": "cell-based", "settings": "pretreatment 1 h, LPS 1 μg/ml 24 h", "protocol": "as §3, §4"}, "mPGES-1 [3]": {"test_system": "mPGES-1", "experiment": "mPGES-1 protein expression in LPS-activated rat peritoneal macrophages (western blotting)", "type": "cell-based", "settings": "SIN or DEX 1 h, LPS 24 h", "protocol": "as §3, §5"}, "TNF-α": {"test_system": "TNF-α", "experiment": "TNF-α level in LPS-stimulated rat peritoneal macrophages (ELISA)", "type": "cell-based", "settings": "pretreatment 1 h, LPS 1 μg/ml 24 h", "protocol": "as §3, §4"}, "p65 [4]": {"test_system": "p65", "experiment": "Nuclear translocation of p65 in LPS-stimulated RAW264.7 cells (immunofluorescence)", "type": "cell-based, mouse", "settings": "640 μM SIN 1 h, then LPS", "protocol": "RAW 264.7 cells were seeded on glass coverslip at a density 2.0×10^5 cells/well in 6-well plates and incubated for 24 h. Cells were pretreated with 640 μM SIN for 1 h and followed stimulated by LPS (100 ng/ml) for another 1 h. Rat primary peritoneal macrophages were grown on glass coverslip at a density 4.5×10^6 cells/well in 6-well plates and pretreated with 640 μM SIN for 1 h, and then challenged with LPS (1 μg/ml) for another 30 min (for NF-κB) or 2 h (for C/EBPβ). Cells were fixed with 4% paraformaldehyde for 30 min at room temperature and then blocked for 1 h with 5% BSA in PBS containing 0.1% Triton X-100. Then incubated with a primary antibodies for overnight and followed by Alexa Fluor 594-labeled goat anti-rabbit IgG. Cells were washed three times, and stained with DAPI for 30 min. After a wash step, cells were fixed on the slide and the images were acquired using a LeicaDM2500 fluorescent microscope (Leica Microsystems GmbH, Wet-zlar, Germany)."}, "p-cPLA2 [5]": {"test_system": "p-cPLA2", "experiment": "p-cPLA2 protein expression in IL-1β-stimulated A549 cells (western blotting)", "type": "cell-based", "settings": "IL-1β with SIN or DEX for 48 h", "protocol": "as §1, §2"}, "COX-1": {"test_system": "COX-1", "experiment": "COX-1 protein expression in IL-1β-stimulated A549 cells (western blotting)", "type": "cell-based", "settings": "IL-1β with SIN or DEX for 48 h", "protocol": "as §1, §2"}, "p65 [6]": {"test_system": "p65", "experiment": "Nuclear translocation of p65 in LPS-stimulated rat peritoneal macrophages (immunofluorescence, western blotting)", "type": "cell-based", "settings": "640 μM SIN 1 h, LPS 30 min", "protocol": "Whole-cell and nuclear proteins were obtained using RIPA lysis buffer (CST, Boston, Mass., USA) and Nuclear and Cytoplasmic Extraction Reagents kit from Thermo Scientific (Asheville, N.C., USA), respectively. For immunoblotting, proteins from whole-cell, cytoplasm, nuclear, and microsomal fractions were separated on SDS-PAGE, then transferred onto a nitrocellulose membrane from GE Healthcare Life Sciences (Buckinghamshire, UK), and incubated with 5% skimmed milk at room temperature for 1 h. Membranes were incubated with the primary antibodies including cPLA2, p-cPLA2, COX-1 and p65 (all dilutions 1:1000), and COX-2 (dilution 1:500) from Cell Signaling Technology (Boston, Mass., USA); and mPGES-1 (dilution 1:200) from Cayman Chemical (Ann Arbor, Mich., USA); and β-actin (dilution 1:1000) from Santa Cruz Biotechnology (Santa Cruz, Calif., USA); and TBP (dilution 1:200) was from Abcam (Cambridge, UK) at 4° C. overnight and the band was visualized by incubating the anti-rabbit or anti-mouse secondary antibodies (dilution 1:10,000) from Li-COR (Lincoln, Nebr., USA) at room temperature for 1 h. The levels of protein expression were measured using Odyssey v3.0 software from Li-COR (Lincoln, Nebr., USA).\nRAW 264.7 cells were seeded on glass coverslip at a density 2.0×10^5 cells/well in 6-well plates and incubated for 24 h. […]"}}, "data": [{"smiles": "COC1=C[C@@H]2[C@@H]3Cc4ccc(OC)c(O)c4[C@]2(CCN3C)CC1=O", "note": "[SIN, sinomenine]", "values": [{"measurement": "COX-2 protein expression", "setting": "COX-2", "value": "did not suppress"}, {"measurement": "level of PGD2", "setting": "PGD2", "value": "no significant influence"}, {"measurement": "mPGES-1 protein expression in inflamed paw tissues", "setting": "mPGES-1 [1]", "value": "strongly down-regulated"}, {"measurement": "p-cPLA2 protein expression", "setting": "p-cPLA2 [2]", "value": "did not suppress"}, {"measurement": "LPS-induced phosphorylation of C/EBPβ (Ser105 and T235+T188)", "setting": "C/EBPβ; LPS 30 min", "value": "inhibitory effects"}, {"measurement": "LPS-induced nuclear translocation of C/EBPβ", "setting": "C/EBPβ; LPS 2 h", "value": "inhibitory effects"}, {"measurement": "NO production (nitrite)", "setting": "NO", "value": "significantly inhibited"}, {"measurement": "mPGES-1 protein expression", "setting": "mPGES-1 [3]", "value": "significantly and dose-dependently inhibited"}, {"measurement": "TNF-α production", "setting": "TNF-α", "value": "significantly inhibited"}, {"measurement": "nuclear translocation of p65", "setting": "p65 [4]", "value": "did not produce observable effects"}, {"measurement": "p-cPLA2 protein expression", "setting": "p-cPLA2 [5]", "value": "did not suppress"}, {"measurement": "COX-1 protein expression", "setting": "COX-1", "value": "did not suppress"}, {"measurement": "nuclear translocation of p65", "setting": "p65 [6]", "value": "does not produce observable inhibitory effects"}]}]}
